Source: patent publication US10945981B2, “Methods for treating familial adenomatous polyposis” (CANCER PREVENTION PHARMACEUTICALS, INC., priority 2019, dated 2021)

Experiments:
[1] = tested on: patients with Familial Adenomatous Polyposis (FAP); experiment: Randomized, double-blind phase III trial in FAP patients: FAP-related events (efficacy); type: in vivo, human; settings: for Mean time to first FRE: Kaplan-Meier estimated
Description: Patients were stratified by anatomic site with highest polyp burden and surgical status: (a) post colectomy with rectal or ileal pouch polyposis (longest projected time to first FRE); (b) with duodenal polyposis (intermediate projected time to first FRE); and (c) pre-colectomy (shortest projected time to first FRE) prior to randomization to minimize treatment imbalance.
A stratified randomization procedure was used with stratification based on FAP-related time-to-first-event prognosis (see FIG. 1). The event prognosis groups were represented by 1) best (i.e., longest projected time to first FAP-related event)—rectal/pouch polyposis (Post-colectomy (≥3 years S/P IRA or IPAA with >10 polyps; any polyps >5 mm excised at baseline)), 2) intermediate—duodenal polyposis (Spigelman Stage 3 or 4 or Spigelman Stage 3 or 4 down-staged to Spigelman 1 or 2 within the past 6 months), and 3) worst—pre-colectomy. If a subject has two or more of these disease sites, the most severe prognosis stratum was assigned for randomization (e.g. worst>intermediate>best). Since an individual may have more than one disease site involved, the trial assessed time to any defined FAP-related event in the subject as a whole. In order to minimize potential treatment arm imbalance a centralized randomization process was used to balance among treatment groups within prognostic strata.
Lower GI Endoscopy: Patients were evaluated via colonoscopy, flexible or rigid procto-sigmoidoscopy during the screening phase. Biopsies, ablations, and snare excisions at baseline were performed per the clinician's standard of care. If considered eligible based on inclusion criteria, a grossly normal mucosa biopsy was obtained for baseline polyamine measurement. Still and video documentation of the colon (vide infra) or the residual rectum or entire pouch was also obtained for archiving. Polyp size was determined by visual comparison with biopsy forceps that can measure 5.0-5.5 mm in the fully open position. All randomized patients with an intact colon or rectum/pouch had baseline and on-study lower GI endoscopy procedures as part of this trial.
Upper GI Endoscopy: The duodenum was evaluated by forward-viewing and/or side-viewing gastroscopes (with still and video documentation with closed and open biopsy forceps near mucosa). All randomized patients with a duodenum had baseline and on-study UGI endoscopy as part of this trial. Subjects stratified to the duodenal group must have duodenal biopsies of all polyps 1 cm or larger to determine HGD and histology required for determining Stage 3 or 4 Spigelman status.
FAP-related primary events by disease site were as follows: • 1. Pre-operative, intact colon: Disease progression indicating need for colectomy with IRA or total procto-colectomy • 2. Retained rectum or pouch events include one or more of the following: • a) Excisional intervention by endoscopic snare or trans-anal excision to remove any polyp ≥10 mm in size (per pathology report) and/or pathologic evidence of high grade dysplasia. • b) Disease progression indicating need for proctectomy or pouch resection • 3. Duodenal disease includes the following: • a) Progression in Spigelman Stage to more advanced stage (Stage 2, 3 or 4) • b) Disease progression indicating need for excisional intervention (sub-mucosal resection, trans-duodenal excision, ampullectomy, duodenectomy, Whipple procedure) • c) Development of cancer
At six month intervals (+/−two weeks), subjects underwent repeat upper and lower endoscopy. […] Video recordings of all procedures and qualitative assessments were compared to the exam 6 months prior.

tumor putrescine levels = settings: eflornithine infusion, rat-tumor model; cited from earlier work
[2] = tested on: patients with Familial Adenomatous Polyposis (FAP); experiment: Randomized, double-blind phase III trial in FAP patients: safety (adverse events); settings: for Treatment-related serious adverse events: 1 patient each
prostoglandin E2 (PGE2) = settings: 300 mg/day, one month; cited from earlier work
[3] = disease site colon, number of subjects
[4] = disease site duodenum, number of subjects
[5] = disease site rectum and pouch, number of subjects
[6] = post-colectomy, rectal/ileal pouch stratum

NCCCC(N)(C(=O)O)C(F)F (stereo not shown) [Eflornithine, 2,5-diamino-2-(difluoromethyl)pentanoic acid]
Kaplan-Meier estimated mean time to first FRE ([1]; ITT population): 21.8 months | Event-free rate ([1]; ITT population, cumulative): 59.6% | FREs occurred, percent of patients ([1]; ITT population, cumulative): 40.4% | Surgical FAP-related events, Colon: Event-free proportion ([1]; disease site colon): 76.9% | Surgical FAP-related events, Colon: Colectomy [1, 3]: 0 | Surgical FAP-related events, Colon: Disease progression [1, 3]: 3 | Surgical FAP-related events, Duodenum: Event-free proportion ([1]; disease site duodenum): 72.7% | Surgical FAP-related events, Duodenum: Disease progression [1, 4]: 3 | Surgical FAP-related events, Duodenum: Excisional intervention [1, 4]: 3 | Surgical FAP-related events, Duodenum: Spigelman stage progression [1, 4]: 12 | Surgical FAP-related events, Rectum and Pouch: Event-free proportion ([1]; disease site rectum and pouch): 87.2% | Surgical FAP-related events, Rectum and Pouch: Disease progression [1, 5]: 5 | Surgical FAP-related events, Rectum and Pouch: Proctectomy/pouch resection [1, 5]: 1 | FRE type: Duodenal excision ([1]; duodenal polyposis stratum): 2 | FRE type: Duodenal excision and Spigelman stage progression ([1]; duodenal polyposis stratum): 1 | FRE type: Pouch resection ([1]; duodenal polyposis stratum): 2 | FRE type: Spigelman stage progression ([1]; duodenal polyposis stratum): 7 | FRE type: ≥10 mm polyp removed in rectum/pouch ([1]; duodenal polyposis stratum): 1 | Patients with FRE, % ([1]; duodenal polyposis stratum): (39.4) % | Total FRE ([1]; duodenal polyposis stratum): 13 | Mean time to first FRE ([1]; duodenal polyposis stratum): 21.7 months | Risk reduction versus combination ([1]; duodenal polyposis stratum, combination relative to the arm named): 24% | Patients with FRE, % ([1]; duodenal polyposis stratum, listed as eflornithine): 39.4% | Progression of lower gastrointestinal polyposis: surgeries ([1]; human, in vivo): 1 | Patients with duodenal polyposis progression who underwent duodenal excisional procedures ([1]; number of patients): 3 | FRE type: Pouch resection [1, 6]: 2 | FRE type: Proctocolectomy [1, 6]: 1 | FRE type: Spigelman stage progression [1, 6]: 1 | FRE type: ≥10 mm polyp removed in rectum/pouch [1, 6]: 1 | Patients with FRE, % [1, 6]: (41.7) % | Total FRE [1, 6]: 5 | Mean time to first FRE [1, 6]: 15.7 months | Risk reduction versus combination ([1]; post-colectomy, rectal/ileal pouch stratum, combination relative to the arm named): None | Patients with FRE, % ([1]; post-colectomy, rectal/ileal pouch stratum, listed as eflornithine): 41.7% | FRE type: Colectomy ([1]; pre-colectomy stratum): 2 | FRE type: Colectomy and Spigelman stage progression ([1]; pre-colectomy stratum): 1 | FRE type: Spigelman stage progression ([1]; pre-colectomy stratum): 2 | Patients with FRE, % ([1]; pre-colectomy stratum): (41.7) % | Total FRE ([1]; pre-colectomy stratum): 5 | Mean time to first FRE ([1]; pre-colectomy stratum): 19.7 months | Patients with FRE, % ([1]; pre-colectomy stratum, listed as eflornithine): 41.7% | Risk reduction versus combination ([1]; pre-colectomy stratum, risk reduction for FRE of the combination relative to the arm named): 80% | Event Rate of FAP-related Surgery Events in Lower GI ([1]; subjects with lower GI anatomy): 8/57 (14%) | Lower GI surgery events: Need colectomy ([1]; subjects with lower GI anatomy): 3 | Lower GI surgery events: Need pouch resection ([1]; subjects with lower GI anatomy): 4 | Lower GI surgery events: Need proctectomy ([1]; subjects with lower GI anatomy): 1 | Lower GI surgery events: Total Surgical Events ([1]; subjects with lower GI anatomy): 8 | Progression of lower gastrointestinal polyposis: polypectomies ([1]; ≥10 mm in size and/or high grade dysplasia): 2 | Decrease in tumor putrescine levels (tumor putrescine levels): 90% | Discontinuations due to AEs, number of patients [2]: 5 patients | Discontinuations due to AEs, percent of patients [2]: 8.8% | TRAE reported by % of patients [2]: 55.4% | Treatment-related hearing adverse events: Hearing loss N [2]: 1 | Treatment-related hearing adverse events: Tinnitus N [2]: 1 | Treatment-related serious adverse events [2]: stroke | Treatment-related serious adverse events ([2]; listed as CPP-1X): Stroke | Death ([2]; safety population): 0 n (%) | Number of patients discontinuing due to a TRAE ([2]; safety population): 3 (5.4) n (%) | Number of patients reporting TEAEs ([2]; safety population): 49 (87.5) n (%) | Number of patients reporting TEAEs ≥ Grade 3 ([2]; safety population): 17 (30.4) n (%) | Number of patients reporting TRAE: Abdominal distension ([2]; safety population): 4 (7.1) n (%) | Number of patients reporting TRAE: Abdominal pain ([2]; safety population): 4 (7.1) n (%) | Number of patients reporting TRAE: Alopecia ([2]; safety population): 0 n (%) | Number of patients reporting TRAE: Decreased appetite ([2]; safety population): 3 (5.4) n (%) | Number of patients reporting TRAE: Depression ([2]; safety population): 1 (1.8) n (%) | Number of patients reporting TRAE: Diarrhea ([2]; safety population): 5 (8.9) n (%) | Number of patients reporting TRAE: Dizziness ([2]; safety population): 3 (5.4) n (%) | Number of patients reporting TRAE: Dyspepsia ([2]; safety population): 3 (5.4) n (%) | Number of patients reporting TRAE: Fatigue ([2]; safety population): 3 (5.4) n (%) | Number of patients reporting TRAE: Flatulence ([2]; safety population): 3 (5.4) n (%) | Number of patients reporting TRAE: Frequent bowel movements ([2]; safety population): 3 (5.4) n (%) | Number of patients reporting TRAE: Gastritis erosive ([2]; safety population): 0 n (%) | Number of patients reporting TRAE: Headache ([2]; safety population): 8 (14.3) n (%) | Number of patients reporting TRAE: Hematochezia ([2]; safety population): 4 (7.1) n (%) | Number of patients reporting TRAE: Nausea ([2]; safety population): 8 (14.3) n (%) | Number of patients reporting TRAE: Pruritus ([2]; safety population): 2 (3.6) n (%) | Number of patients reporting TRAE: Rash ([2]; safety population): 0 n (%) | Number of patients reporting TRAE: Rectal hemorrhage ([2]; safety population): 3 (5.4) n (%) | Number of patients reporting TRAE: Thrombocytopenia ([2]; safety population): 1 (1.8) n (%) | Number of patients reporting TRAE: Tinnitus ([2]; safety population): 1 (1.8) n (%) | Number of patients reporting TRAE: Upper abdominal pain ([2]; safety population): 2 (3.6) n (%) | Number of patients reporting TRAE: Vomiting ([2]; safety population): 5 (8.9) n (%) | Number of patients reporting TRAEs ([2]; safety population): 31 (55.4) n (%) | Number of patients reporting TRSAEs ([2]; safety population): 1 (1.8) n (%)

CC(C)Cc1ccc(C(C)C(=O)O)cc1 (stereo not shown) [ibuprofen]
PGE2 levels in flat mucosa (prostoglandin E2 (PGE2)): significant decrease
